Among the data in patent US9181305B2, “Exendin-4 peptide analogues” (SANOFI, priority 2012, dated 2015) are EC50 values, retold here.

*1 amine or outer side, *2 acyl side, *3 side chain or, on linkers, in order; H or OH if unused. Where a SMILES comes first, the peptide text is derived from it. Side-chain parts run from the residue outwards. [ ]: non-standard residue; d: D form. The star is where a group is joined. γGlu = O=C(O)[C@H](CCC(=O)[*:2])N[*:1]; Palmitoyl = CCCCCCCCCCCCCCCC(=O)*; Cha = N[C@@H](CC1CCCCC1)C(=O)O; Aib = CC(C)(N)C(=O)O

For the assay, the target named is T1, human GLP-1 receptor (hGLP-1 R) (Homo sapiens, UniProt P43220).
T1 construct: expressed in transfected cells; host or cells: HEK-293
T1 sequence (P43220 24-463): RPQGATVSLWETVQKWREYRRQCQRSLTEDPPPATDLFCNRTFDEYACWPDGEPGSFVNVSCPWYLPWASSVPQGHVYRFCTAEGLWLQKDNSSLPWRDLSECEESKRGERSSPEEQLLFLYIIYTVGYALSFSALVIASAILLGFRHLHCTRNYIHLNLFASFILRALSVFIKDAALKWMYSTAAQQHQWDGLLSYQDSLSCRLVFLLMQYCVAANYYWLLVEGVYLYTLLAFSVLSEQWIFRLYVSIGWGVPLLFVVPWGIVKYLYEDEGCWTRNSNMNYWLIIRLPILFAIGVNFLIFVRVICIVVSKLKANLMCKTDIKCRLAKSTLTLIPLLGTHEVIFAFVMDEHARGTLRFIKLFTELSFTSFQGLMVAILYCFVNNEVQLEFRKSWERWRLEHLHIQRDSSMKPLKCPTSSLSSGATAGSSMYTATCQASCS
Description: cAMP response (HTRF) of HEK-293 cells stably expressing human GLP-1 receptor. It is filed as cell-based. The note with it: HEK-293 cells expressing human GLP-1 receptor, cAMP formation. As to the method:
cAMP content of cells was determined using a kit from Cisbio Corp. (cat. no. 62AM4PEC) based on HTRF (Homogenous Time Resolved Fluorescence). For preparation, cells were split into T175 culture flasks and grown overnight to near confluency in medium (DMEM/10% FBS). Medium was then removed and cells washed with PBS lacking calcium and magnesium, followed by proteinase treatment with accutase (Sigma-Aldrich cat. no. A6964). Detached cells were washed and resuspended in assay buffer (1×HBSS; 20 mM HEPES, 0.1% BSA, 2 mM IBMX) and cellular density determined. […] For measurement, 25 μl of test compound in assay buffer was added to the wells, followed by incubation for 30 minutes at room temperature.
`CCCCCCCCCCCCCCCC(=O)N[C@@H](CCC(=O)NCCCC[C@H](NC(=O)[C@H](CO)NC(=O)[C@@H]1CCCN1C(=O)[C@@H]1CCCN1C(=O)[C@@H]1CCCN1C(=O)[C@H](C)NC(=O)CNC(=O)[C@H](CO)NC(=O)[C@H](CO)NC(=O)[C@@H]1CCCN1C(=O)CNC(=O)CNC(=O)C(C)(C)NC(=O)[C@H](CCCCN)NC(=O)[C@H](CC(C)C)NC(=O)[C@H](Cc1c[nH]c2ccccc12)NC(=O)[C@H](CCC(=O)O)NC(=O)[C@@H](NC(=O)[C@H](Cc1ccccc1)NC(=O)[C@H](CC(=O)O)NC(=O)[C@H](CCC(N)=O)NC(=O)[C@H](C)NC(=O)[C@H](CCCNC(=N)N)NC(=O)[C@H](CCCNC(=N)N)NC(=O)[C@H](CO)NC(=O)[C@H](CC(=O)O)NC(=O)[C@H](CCSC)NC(=O)[C@H](CCC(N)=O)NC(=O)[C@H](CCCCN)NC(=O)[C@H](CO)NC(=O)[C@H](CC(C)C)NC(=O)[C@H](CC(=O)O)NC(=O)[C@H](CO)NC(=O)[C@@H](NC(=O)[C@H](Cc1ccccc1)NC(=O)[C@@H](NC(=O)CNC(=O)[C@H](CCC(N)=O)NC(=O)[C@@H](CO)NC(=O)[C@@H](N)Cc1c[nH]cn1)[C@@H](C)O)[C@@H](C)O)[C@@H](C)CC)C(N)=O)C(=O)O` [(72)] (H-H[dS]QGTFTSDLSKQMDSRRAQDFIEWLK[Aib]GGPSSGAPPPSK([γGlu-Palmitoyl])-NH2) returned an EC50 of 5.2 pM. With `CCCCCCCCCCCCCCCC(=O)NCCCC[C@H](NC(=O)[C@H](CO)NC(=O)[C@@H]1CCCN1C(=O)[C@@H]1CCCN1C(=O)[C@@H]1CCCN1C(=O)[C@H](C)NC(=O)CNC(=O)[C@H](CO)NC(=O)[C@H](CO)NC(=O)[C@@H]1CCCN1C(=O)CNC(=O)CNC(=O)[C@H](CC(N)=O)NC(=O)[C@H](CCCCN)NC(=O)[C@H](CC(C)C)NC(=O)[C@H](Cc1c[nH]c2ccccc12)NC(=O)[C@H](CCC(=O)O)NC(=O)[C@@H](NC(=O)[C@H](Cc1ccccc1)NC(=O)[C@H](CC(=O)O)NC(=O)[C@H](CCC(N)=O)NC(=O)[C@H](C)NC(=O)[C@H](CCCNC(=N)N)NC(=O)[C@H](CCCNC(=N)N)NC(=O)[C@H](CO)NC(=O)[C@H](CC(=O)O)NC(=O)[C@H](CCSC)NC(=O)[C@H](CCC(N)=O)NC(=O)[C@H](CCCCN)NC(=O)[C@H](CO)NC(=O)[C@H](CC(C)C)NC(=O)[C@H](CC(=O)O)NC(=O)[C@H](CO)NC(=O)[C@@H](NC(=O)[C@H](Cc1ccccc1)NC(=O)[C@@H](NC(=O)CNC(=O)[C@H](CCC(N)=O)NC(=O)[C@@H](CO)NC(=O)[C@@H](N)Cc1c[nH]cn1)[C@@H](C)O)[C@@H](C)O)[C@@H](C)CC)C(N)=O` [(26)] the figure was 9.7 pM; with `CCCCCCCCCCCCCCCC(=O)N[C@@H](CCC(=O)NCCCC[C@H](NC(=O)[C@H](CO)NC(=O)[C@@H]1CCCN1C(=O)[C@@H]1CCCN1C(=O)[C@@H]1CCCN1C(=O)[C@H](C)NC(=O)CNC(=O)[C@H](CO)NC(=O)[C@H](CO)NC(=O)[C@@H]1CCCN1C(=O)CNC(=O)CNC(=O)[C@H](CO)NC(=O)[C@H](CCCCN)NC(=O)[C@H](CC(C)C)NC(=O)[C@H](Cc1c[nH]c2ccccc12)NC(=O)[C@H](CCC(=O)O)NC(=O)[C@@H](NC(=O)[C@H](Cc1ccccc1)NC(=O)[C@H](CC(=O)O)NC(=O)[C@H](CCC(N)=O)NC(=O)[C@H](C)NC(=O)[C@H](C)NC(=O)[C@H](CCCNC(=N)N)NC(=O)[C@H](CO)NC(=O)[C@H](CCC(=O)O)NC(=O)[C@H](CCSC)NC(=O)[C@H](CCC(N)=O)NC(=O)[C@H](CCCCN)NC(=O)[C@H](CO)NC(=O)[C@H](CC(C)C)NC(=O)[C@H](CC(=O)O)NC(=O)[C@H](CO)NC(=O)[C@@H](NC(=O)[C@H](Cc1ccccc1)NC(=O)[C@@H](NC(=O)CNC(=O)[C@H](CCC(N)=O)NC(=O)[C@@H](CO)NC(=O)[C@@H](N)Cc1c[nH]cn1)[C@@H](C)O)[C@@H](C)O)[C@@H](C)CC)C(N)=O)C(=O)O` [(103)] (H-H[dS]QGTFTSDLSKQMESRAAQDFIEWLKSGGPSSGAPPPSK([γGlu-Palmitoyl])-NH2), 3.7 pM. As to `CCCCCCCCCCCCCCCC(=O)N[C@@H](CCC(=O)NCCCC[C@H](NC(=O)[C@H](CO)NC(=O)[C@@H]1CCCN1C(=O)[C@@H]1CCCN1C(=O)[C@@H]1CCCN1C(=O)[C@H](C)NC(=O)CNC(=O)[C@H](CO)NC(=O)[C@H](CO)NC(=O)[C@@H]1CCCN1C(=O)CNC(=O)CNC(=O)[C@H](C)NC(=O)[C@H](CCCCN)NC(=O)[C@H](CC(C)C)NC(=O)[C@H](Cc1c[nH]c2ccccc12)NC(=O)[C@H](CCC(=O)O)NC(=O)[C@@H](NC(=O)[C@H](Cc1ccccc1)NC(=O)[C@H](CC(=O)O)NC(=O)[C@H](CCC(N)=O)NC(=O)[C@H](C)NC(=O)[C@H](CCCNC(=N)N)NC(=O)[C@H](CCCNC(=N)N)NC(=O)[C@H](CO)NC(=O)[C@H](CCC(=O)O)NC(=O)[C@H](CC1CCCCC1)NC(=O)[C@H](CCC(N)=O)NC(=O)[C@H](CCCCN)NC(=O)[C@H](CO)NC(=O)[C@H](CC(C)C)NC(=O)[C@H](CC(=O)O)NC(=O)[C@H](CO)NC(=O)[C@@H](NC(=O)[C@H](Cc1ccccc1)NC(=O)[C@@H](NC(=O)CNC(=O)[C@H](CCC(N)=O)NC(=O)[C@@H](CO)NC(=O)[C@@H](N)Cc1c[nH]cn1)[C@@H](C)O)[C@@H](C)O)[C@@H](C)CC)C(N)=O)C(=O)O` [(95)] (H-H[dS]QGTFTSDLSKQ[Cha]ESRRAQDFIEWLKAGGPSSGAPPPSK([γGlu-Palmitoyl])-NH2), the EC50 was 6.7 pM.

In turn, `CC[C@H](C)[C@H](NC(=O)[C@H](Cc1ccccc1)NC(=O)[C@H](CC(=O)O)NC(=O)[C@H](CCCCN)NC(=O)[C@H](C)NC(=O)[C@H](CCCNC(=N)N)NC(=O)[C@H](CCCNC(=N)N)NC(=O)[C@H](CCC(=O)O)NC(=O)[C@H](CCC(=O)O)NC(=O)[C@H](CCSC)NC(=O)[C@H](CCC(N)=O)NC(=O)[C@H](CCCCN)NC(=O)[C@H](CO)NC(=O)[C@H](CC(C)C)NC(=O)[C@H](CC(=O)O)NC(=O)[C@H](CO)NC(=O)[C@@H](NC(=O)[C@H](Cc1ccccc1)NC(=O)[C@@H](NC(=O)CNC(=O)[C@H](CCC(N)=O)NC(=O)[C@H](CO)NC(=O)[C@@H](N)Cc1c[nH]cn1)[C@@H](C)O)[C@@H](C)O)C(=O)N[C@@H](CCC(=O)O)C(=O)N[C@@H](Cc1c[nH]c2ccccc12)C(=O)N[C@@H](CC(C)C)C(=O)N[C@@H](CCCCN)C(=O)N[C@@H](CC(N)=O)C(=O)NCC(=O)NCC(=O)N1CCC[C@H]1C(=O)N[C@@H](CO)C(=O)N[C@@H](CO)C(=O)NCC(=O)N[C@@H](C)C(=O)N1CCC[C@H]1C(=O)N1CCC[C@H]1C(=O)N1CCC[C@H]1C(=O)N[C@@H](CO)C(N)=O` [(16)] (H-HSQGTFTSDLSKQMEERRAKDFIEWLKNGGPSSGAPPPS-NH2) gave an EC50 of 7.6 pM. `CCCCCCCCCCCCCCCC(=O)N[C@@H](CCC(=O)NCCCC[C@H](NC(=O)[C@H](CO)NC(=O)[C@@H]1CCCN1C(=O)[C@@H]1CCCN1C(=O)[C@@H]1CCCN1C(=O)[C@H](C)NC(=O)CNC(=O)[C@H](CO)NC(=O)[C@H](CO)NC(=O)[C@@H]1CCCN1C(=O)CNC(=O)CNC(=O)[C@H](C)NC(=O)[C@H](CCCCN)NC(=O)[C@H](CC(C)C)NC(=O)[C@H](Cc1c[nH]c2ccccc12)NC(=O)[C@H](CCC(=O)O)NC(=O)[C@@H](NC(=O)[C@H](Cc1ccccc1)NC(=O)[C@H](CC(C)C)NC(=O)[C@H](CCC(N)=O)NC(=O)[C@H](C)NC(=O)[C@H](C)NC(=O)[C@H](CCC(=O)O)NC(=O)[C@H](CO)NC(=O)[C@H](CCC(=O)O)NC(=O)[C@H](CCSC)NC(=O)[C@H](CCC(N)=O)NC(=O)[C@H](CCCCN)NC(=O)[C@H](CO)NC(=O)[C@H](CC(C)C)NC(=O)[C@H](CC(=O)O)NC(=O)[C@H](CO)NC(=O)[C@@H](NC(=O)[C@H](Cc1ccccc1)NC(=O)[C@@H](NC(=O)CNC(=O)[C@H](CCC(N)=O)NC(=O)[C@@H](CO)NC(=O)[C@@H](N)Cc1c[nH]cn1)[C@@H](C)O)[C@@H](C)O)[C@@H](C)CC)C(N)=O)C(=O)O` [(114)] (H-H[dS]QGTFTSDLSKQMESEAAQLFIEWLKAGGPSSGAPPPSK([γGlu-Palmitoyl])-NH2): a half-maximal response (EC50) required 3.1 pM.

`CCCCCCCCCCCCCCCC(=O)N[C@@H](CCC(=O)NCCCC[C@H](NC(=O)[C@H](CO)NC(=O)[C@@H]1CCCN1C(=O)[C@@H]1CCCN1C(=O)[C@@H]1CCCN1C(=O)[C@H](C)NC(=O)CNC(=O)[C@H](CO)NC(=O)[C@H](CO)NC(=O)[C@@H]1CCCN1C(=O)CNC(=O)CNC(=O)[C@H](C)NC(=O)[C@H](CCCCN)NC(=O)[C@H](CC(C)C)NC(=O)[C@H](Cc1c[nH]c2ccccc12)NC(=O)[C@H](CCC(=O)O)NC(=O)[C@@H](NC(=O)[C@H](Cc1ccccc1)NC(=O)[C@H](CC(=O)O)NC(=O)[C@H](CCC(N)=O)NC(=O)[C@H](C)NC(=O)[C@H](C)NC(=O)C(C)(C)NC(=O)[C@H](CO)NC(=O)[C@H](CCC(=O)O)NC(=O)[C@H](CCSC)NC(=O)[C@H](CCC(N)=O)NC(=O)[C@H](CCCCN)NC(=O)[C@H](CO)NC(=O)[C@H](CC(C)C)NC(=O)[C@H](CC(=O)O)NC(=O)[C@H](CO)NC(=O)[C@@H](NC(=O)[C@H](Cc1ccccc1)NC(=O)[C@@H](NC(=O)CNC(=O)[C@H](CCC(N)=O)NC(=O)[C@@H](CO)NC(=O)[C@@H](N)Cc1c[nH]cn1)[C@@H](C)O)[C@@H](C)O)[C@@H](C)CC)C(N)=O)C(=O)O` [(111)] (H-H[dS]QGTFTSDLSKQMES[Aib]AAQDFIEWLKAGGPSSGAPPPSK([γGlu-Palmitoyl])-NH2) displayed an EC50 of 4.1 pM.
